Test results as given in US7935719B2, “N-substituted-azacyclylamines as histamine-3 antagonists” (Wyeth LLC, priority 2006, dated 2011).
Where a name gives a salt, the structure may show the parent alone.

The compounds below were run against T1, Histamine Receptor H3 (Homo sapiens, UniProt Q9Y5N1) (assay: Methyl histamine binding in human histamine H3 receptor cell line). Conditions: membranes of stably transfected HEK293T cells, radioligand 1 nM, Ki from IC50 by Cheng-Prusoff.
Set-up: expressed in transfected cells; host or cells: HEK293T
Protocol: Evaluation of Methyl Histamine Binding in Human Histamine H3 Receptor Cell Line
The affinity of test compounds for the histamine 3 (H3) receptor is evaluated in the following manner. […] Cells are scraped from the plate, transferred to centrifuge tubes, washed one time in PBS by centrifugation in a Sorvall RT7 Plus centrifuge (2000 rpm 10 minutes, 4° C.). The resulting pellets are stored at −80° C. until ready for use. Cells are re-suspended in buffer (50 mM Tris pH=7.5) and placed in a Dounce homogenizer, douncing ten times to homogenize cells. The homogenate is spun down by centrifugation (Sorvall RT7 Plus, 1800 rpm 10 minutes, 4° C.). The supernatant is placed in a Corex tube and spun down by centrifugation (Sorvall RC 5c Plus, 17,000 rpm 20 minutes, 4° C.). The pellet is resuspended in buffer (50 mM Tris, pH 7.5). Protein concentration (ug/ul) is determined using the Micro-BCA Protein Determination. The binding assay is set up in a 96 well microtiter plate in a total volume of 250 uL. Non-specific binding is determined in the presence of 10 uM clobenpropit. The final radioligand concentration is 1 nM. The test compound is serially diluted using the Beckman Biomek2000 to a final approximate range of 100 uM to 100 pM. Membranes are suspended in buffer, homogenized in 2 bursts of ten seconds using a Vitris mechanical homogenizer set at power setting 5. Ten μg of membranes are added to each well. Following a one hour incubation at 30° C., the reaction is terminated by the addition of ice cold buffer and rapid filtration with a Packard Filtermate Harvester through a GF/B filter pre-soaked with 1% PEI for one hour. The plate is dried for one hour at 37° C. and 60 μL Microscint Scintillant is added to each well. The CPM per well is measured on a Packard Top Count NXT. Ki values are determined in nM. […] CPM values are expressed as % specific binding and plotted vs compound concentration. A curve is fitted using a four-parameter logistic fit and the IC50 value is determined. The Ki is calculated from this using the Cheng-Prusoff equation: […]=IC50/1+(L/Kd) where L=concentration of free radioligand used in the assay, and Kd is the dissociation constant of the radioligand for the receptor. L is determined for each experiment by counting an aliquot of the diluted radioligand (corresponding to that added to each well) and the Kd has previously been determined under identical conditions for this cell line/radioligand.

T1 sequence (Q9Y5N1 whole entry): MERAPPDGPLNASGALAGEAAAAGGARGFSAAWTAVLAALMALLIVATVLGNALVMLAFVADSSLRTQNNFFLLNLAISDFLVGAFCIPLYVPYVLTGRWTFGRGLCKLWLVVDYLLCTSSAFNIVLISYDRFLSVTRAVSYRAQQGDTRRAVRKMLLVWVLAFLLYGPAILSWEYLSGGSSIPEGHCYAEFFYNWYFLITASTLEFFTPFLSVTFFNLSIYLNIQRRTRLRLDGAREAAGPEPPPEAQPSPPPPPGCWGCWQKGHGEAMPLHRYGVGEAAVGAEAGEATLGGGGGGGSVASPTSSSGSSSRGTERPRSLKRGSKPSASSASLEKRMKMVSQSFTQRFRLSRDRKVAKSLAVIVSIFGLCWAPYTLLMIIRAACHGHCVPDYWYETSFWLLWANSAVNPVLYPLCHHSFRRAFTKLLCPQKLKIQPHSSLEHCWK

Row | SMILES | Ki [nM]
1 | O=C(c1ccc(-n2cnc3ccccc32)cc1)N1CCC(N2CCCC2)C1 (centres unmarked) [Example 2, 1′-[4-1H-benzimidazol-1-yl)benzoyl]-1,3′-bipyrrolidine hydrochloride] | < 10
2 | O=C(c1ccc(-n2cnc3ccccc32)cc1)N1CC[C@H](N2CCCC2)C1 [Example 5, (3′S)-1′-[4-(1H-benzimidazol-1-yl)benzoyl]-1,3′-bipyrrolidine hydrochloride] | < 10
3 | C[C@@H]1CCCN1[C@H]1CCN(C(=O)c2ccc(-n3cnc4ccccc43)cc2)C1 [Example 6, (2R,3′S)-1′-[4-(1H-benzimidazol-1-yl)benzoyl]-2-methyl-1,3′-bipyrrolidine] | 10.1 to 25
4 | C[C@H]1CCCN1[C@H]1CCN(C(=O)c2ccc(-n3cnc4ccccc43)cc2)C1 [Example 7, (2S,3′S)-1′-[4-(1H-benzimidazol-1-yl)benzoyl]-2-methyl-1,3′-bipyrrolidine] | < 10
5 | CC1CCCN([C@H]2CCN(C(=O)c3ccc(-n4cnc5ccccc54)cc3)C2)C1 (stereo partly drawn) [Example 8, 1-(4-{[(3S)-3-(3-methylpiperidin-1-yl)pyrrolidin-1-yl]carbonyl}phenyl)-1H-benzimidazole] | < 10
6 | CC1CCN([C@H]2CCN(C(=O)c3ccc(-n4cnc5ccccc54)cc3)C2)CC1 [Example 9, 1-(4-{[(3S)-3-(4-methylpiperidin-1-yl)pyrrolidin-1-yl]carbonyl}phenyl)-1H-benzimidazole] | > 100
7 | CN1CCN([C@H]2CCN(C(=O)c3ccc(-n4cnc5ccccc54)cc3)C2)CC1 [Example 10, 1-(4-{[(3S)-3-(4-methylpiperazin-1-yl)pyrrolidin-1-yl]carbonyl}phenyl)-1H-benzimidazole] | > 100
8 | O=C(c1ccc(-n2cnc3ccccc32)cc1)N1CC[C@H](N2CCCCCC2)C1 [Example 11, 1-(4-{[(3S)-3-azepan-1-ylpyrrolidin-1-yl]carbonyl}phenyl)-1H-benzimidazole] | < 10
9 | CC1CCCCN1[C@H]1CCN(C(=O)c2ccc(-n3cnc4ccccc43)cc2)C1 (stereo partly drawn) [Example 12, 1-(4-{[(3S)-3-(2-methylpiperidin-1-yl)pyrrolidin-1-yl]carbonyl}phenyl)-1H-benzimidazole] | 25.1 to 50
10 | O=C(c1ccc(-n2cnc3ccccc32)cc1)N1CC[C@H](N2CCCCC2)C1 [Example 13, 1-(4-{[(3S)-3-piperidin-1-ylpyrrolidin-1-yl]carbonyl}phenyl)-1H-benzimidazole] | < 10
11 | c1ccc2c(c1)ncn2-c1ccc(CN2CC[C@H](N3CCCC3)C2)cc1 [Example 14, (3′S)-1′-[4-(1H-benzimidazol-1-yl)benzyl]-1,3′-bipyrrolidine hydrochloride] | < 10
12 | c1ccc2c(c1)ncn2-c1ccc(CN2CC[C@H](N3CCCCC3)C2)cc1 [Example 15, (1-(4-{[(3S)-3-piperidin-1-ylpyrrolidin-1-yl]methyl}phenyl)-1H-benzimidazolefumaric acid salt] | < 10
13 | Cc1nc2ccccc2n1-c1ccc(CN2CC[C@H](N3CCCC3)C2)cc1 [Example 17, (3′S)-1′-[4-(2-methyl-1H-benzimidazol-1-yl)benzyl]-1,3′-bipyrrolidine] | < 10
14 | Cc1nc2ccccc2n1-c1ccc(CN2CC[C@H](N3CCCCCC3)C2)cc1 [Example 18, 1-(4-{[(3S)-3-azepan-1-ylpyrrolidin-1-yl]methyl}phenyl)-2-methyl-1H-benzimidazole] | < 10
15 | Cc1nc2ccccc2n1-c1ccc(C(=O)N2CC[C@H](N3CCCCCC3)C2)cc1 [Example 20, 1-(4-{[(3S)-3-azepan-1-ylpyrrolidin-1-yl]carbonyl}phenyl)-2-methyl-1H-benzimidazole fumaric acid salt] | < 10
16 | Cc1nc2ccccc2n1-c1ccc(C(=O)N2CC[C@H](N3CCCCC3C)C2)cc1 (stereo partly drawn) [Example 23, 2-methyl-1-(4-{[(3S)-3-(2-methylpiperidin-1-yl)pyrrolidin-1-yl]carbonyl}phenyl)-1H-benzimidazole] | < 10

Row | SMILES | Ki [nM]
17 | Cc1nc2ccccc2n1-c1ccc(C(=O)N2CC[C@H](N3CCC(C)CC3)C2)cc1 [Example 25, 2-methyl-1-(4-{[(3S)-3-(4-methylpiperidin-1-yl)pyrrolidin-1-yl]carbonyl}phenyl)-1H-benzimidazole] | 25.1 to 50
18 | Cc1nc2ccccc2n1-c1ccc(C(=O)N2CC[C@H](N3CCN(C)CC3)C2)cc1 [Example 26, 2-methyl-1-(4-{[(3S)-3-(4-methylpiperazin-1-yl)pyrrolidin-1-yl]carbonyl}phenyl)-1H-benzimidazole] | > 100
19 | O=C(c1ccc(-n2ccc3ccccc32)cc1)N1CC[C@H](N2CCCC2)C1 [Example 30, (3′S)-1′-[4-(1H-indol-1-yl)benzoyl]-1,3′-bipyrrolidine hydrochloride] | < 10
20 | O=C(c1ccc(-n2ccc3c(Cl)cccc32)cc1)N1CC[C@H](N2CCCC2)C1 [Example 32, (3′S)-1′-[4-(4-chloro-1H-indol-1-yl)benzoyl]-1,3′-bipyrrolidine] | < 10
21 | O=C(c1ccc(-n2ccc3cccc(Cl)c32)cc1)N1CC[C@H](N2CCCC2)C1 [Example 34, (3′S)-1′-[4-(7-chloro-1H-indol-1-yl)benzoyl]-1,3′-bipyrrolidine] | < 10
22 | O=C(c1ccc(-n2ccc3cc(Br)ccc32)cc1)N1CC[C@H](N2CCCC2)C1 [Example 35, (3′S)-1′-[4-(5-bromo-1H-indol-1-yl)benzoyl]-1,3′-bipyrrolidine] | < 10
23 | Cc1cc2ccccc2n1-c1ccc(C(=O)N2CC[C@H](N3CCCC3)C2)cc1 [Example 38, (3′S)-1′-[4-(2-methyl-1H-indol-1-yl)benzoyl]-1,3′-bipyrrolidine] | < 10
24 | O=C(c1ccc(-n2ncc3cc(F)ccc32)cc1)N1CC[C@H](N2CCCC2)C1 [Example 40, (3′S)-1′-[4-(5-fluoro-1H-indazol-1-yl)benzoyl]-1,3′-bipyrrolidine] | < 10
25 | O=C(c1ccc(-n2ncc3ccc(F)cc32)cc1)N1CC[C@H](N2CCCC2)C1 [Example 41, (3′S)-1′-[4-(6-fluoro-1H-indazol-1-yl)benzoyl]-1,3′-bipyrrolidine] | 10.1 to 25
26 | N#Cc1ccc2c(cnn2-c2ccc(C(=O)N3CC[C@H](N4CCCC4)C3)cc2)c1 [Example 42, 1-{4-[(3′S)-1,3′-bipyrrolidin-1′-ylcarbonyl]phenyl}-1H-indazole-5-carbonitrile] | < 10
27 | N#Cc1ccc2nn(-c3ccc(C(=O)N4CC[C@H](N5CCCC5)C4)cc3)cc2c1 [Example 43, 2-{4-[(3′S)-1,3′-bipyrrolidin-1′-ylcarbonyl]phenyl}-2H-indazole-5-carbonitrile] | < 10
28 | O=C(c1ccc(-n2cc3ccc(F)cc3n2)cc1)N1CC[C@H](N2CCCC2)C1 [Example 44, (3′S)-1′-[4-(6-fluoro-2H-indazol-2-yl)benzoyl]-1,3′-bipyrrolidine] | < 10
29 | O=C(c1ccc(-n2cc3cc(F)ccc3n2)cc1)N1CC[C@H](N2CCCC2)C1 [Example 45, (3′S)-1′-[4-(5-fluoro-2H-indazol-2-yl)benzoyl]-1,3′-bipyrrolidine] | < 10
30 | N#Cc1ccc2c(ccn2-c2ccc(C(=O)N3CC[C@@H](N4CCCC4)C3)cc2)c1 [Example 46, 1-{4-[(3′R)-1,3′-bipyrrolidin-1′-ylcarbonyl]phenyl}-1H-indole-5-carbonitrile] | < 10
31 | N#Cc1ccc2c(c1)ncn2-c1ccc(C(=O)N2CC[C@H](N3CCCC3)C2)cc1 [Example 48, 1-{4-[(3′S)-1,3′-bipyrrolidin-1′-ylcarbonyl]phenyl}-1H-benzimidazole-5-carbonitrile fumarate] | 25.1 to 50

What follows are compounds tested against T1, Histamine Receptor H3 (assay: Cyclic AMP assay for histamine receptor H3 antagonism activity). Conditions: stable H3 cells, histamine plus 10 μM forskolin, 30 min at 30° C., HitHunter cAMP kit.
Type: cell-based
Set-up: expressed in transfected cells
Protocol: Cyclic Amp Assay for Histamine Receptor H3 Antagonism Activity.
Stable H3 cells are maintained in tissue culture flask in DMEM with high glucose, 10% FBS, 1× pen/strep, 500 ug/ml GY18, until experiment. Culture media is removed and cells are washed twice with PBS w/Ca+2 and Mg+2 plus 500 μM IBMX. Cells are then detached by tapping on the side of the flask and resuspend in the same buffer. Two thousand cells/well are incubated with 1 μM histamine plus 10 μM forskolin plus various concentrations of compounds in a total volume of 30 μL in 96 well plates for 30 min at 30° C. Final test compound concentrations range from 10^-4 M to 10-9.5 M at full log dilutions. Cyclic AMP levels are measured using HitHunter cAMP kit from Discoverx, cat#900041 according to manufacturer's instruction. Chemiluminescence signals are detected using Top Count (Packard). Cyclic AMP levels in control cells receiving 10 μM forskolin plus 100 nM histamine are considered 0%, and in cells receiving 10 uM forskolin plus 100 nM histamine plus 1 μM clobenpropit are considered 100%. Data are expressed as % control and analyzed using Prizm software. The Kb values are calculated using the following equation, KB=EC50 or IC50/[1+(ligand/Kd)].

Row | SMILES | Kb [nM]
32 | O=C(c1ccc(-n2cnc3ccccc32)cc1)N1CCC(N2CCCC2)C1 (centres unmarked) [Example 2, 1′-[4-1H-benzimidazol-1-yl)benzoyl]-1,3′-bipyrrolidine hydrochloride] | < 10
33 | O=C(c1ccc(-n2cnc3ccccc32)cc1)N1CC[C@H](N2CCCC2)C1 [Example 5, (3′S)-1′-[4-(1H-benzimidazol-1-yl)benzoyl]-1,3′-bipyrrolidine hydrochloride] | 25.1 to 50
34 | C[C@H]1CCCN1[C@H]1CCN(C(=O)c2ccc(-n3cnc4ccccc43)cc2)C1 [Example 7, (2S,3′S)-1′-[4-(1H-benzimidazol-1-yl)benzoyl]-2-methyl-1,3′-bipyrrolidine] | < 10
35 | O=C(c1ccc(-n2cnc3ccccc32)cc1)N1CC[C@H](N2CCCCCC2)C1 [Example 11, 1-(4-{[(3S)-3-azepan-1-ylpyrrolidin-1-yl]carbonyl}phenyl)-1H-benzimidazole] | < 10
